Laboratory results as given in paper PMC10617418, “Identification of tanshinone I as cap-dependent endonuclease inhibitor with broad-spectrum antiviral effect” (Journal of Virology, 2023).
Where two headings read alike, the source gives them in different places.

Key:
[1] = tested on: SFTSV; experiment: microbe, parasite or virus in culture; details: Severe fever with thrombocytopenia syndrome virus, Vero, 36 h, read-out: EC50 (Vero) against SFTSV
[2] = tested on: HRTV; experiment: microbe, parasite or virus in culture; format: cell-based; details: Heartland virus, Vero, 36 h, read-out: EC50 against HRTV
[3] = cytotoxicity by CCK8 assay; details: African green monkey, Vero cells
[4] = biological target: T1, SFTSV EndoN (Dabie bandavirus, UniProt I0DF35); format: biochemical
[5] = tested on: GTV; experiment: microbe, parasite or virus in culture; format: cell-based; details: Guertu virus, Vero, 36 h, read-out: EC50 against GTV
[6] = tested on: LCMV; experiment: organism not typed; format: cell-based, lymphatic choriomeningitis virus; details: BHK-21, read-out: EC50 against LCMV
[7] = tested on: SFTSV
[8] = tested on: IAV (H1N1); experiment: microbe, parasite or virus in culture; format: cell-based; details: Influenza A virus, H1N1, MDCK, read-out: EC50 against IAV (H1N1)
[9] = tested on: SFTSV; experiment: microbe, parasite or virus in culture; format: cell-based; details: Severe fever with thrombocytopenia syndrome virus, Huh-7, 36 h, read-out: EC50 (Huh 7) against SFTSV
[10] = tested on: SFTSV; format: cell-based, severe fever with thrombocytopenia syndrome virus
[11] = tested on: LCMV; details: mouse, in vivo
[12] = tested on: IAV (H1N1); details: mouse, in vivo
[13] = tested on: SFTSV; details: mouse, in vivo
[14] = pharmacokinetic analysis in rats; details: 20 mg/kg
[15] = biological target: T1, SFTSV EndoN; experiment: biochemical; format: binding
[16] = water solubility; format: physicochemical
[17] = biological target: T2, LCMV EndoN (Lymphocytic choriomeningitis virus, UniProt P14240); experiment: biochemical
T2 sequence (P14240 26-287 limits assumed): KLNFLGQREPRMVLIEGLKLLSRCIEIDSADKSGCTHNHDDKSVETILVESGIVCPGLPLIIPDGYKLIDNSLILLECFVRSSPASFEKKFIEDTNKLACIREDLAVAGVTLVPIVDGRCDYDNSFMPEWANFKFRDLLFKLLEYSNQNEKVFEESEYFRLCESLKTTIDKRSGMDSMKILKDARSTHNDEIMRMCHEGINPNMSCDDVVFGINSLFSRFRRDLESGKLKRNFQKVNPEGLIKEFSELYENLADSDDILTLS

[18] = biological target: T1, SFTSV EndoN; experiment: biochemical
[19] = compared with tanshinone IIA; cited from earlier work
[20] = male, Sprague-Dawley, rat, plasma, ip
[21] = male, Sprague-Dawley, rat, plasma, iv

T1 sequence (I0DF35 20-221 limits assumed): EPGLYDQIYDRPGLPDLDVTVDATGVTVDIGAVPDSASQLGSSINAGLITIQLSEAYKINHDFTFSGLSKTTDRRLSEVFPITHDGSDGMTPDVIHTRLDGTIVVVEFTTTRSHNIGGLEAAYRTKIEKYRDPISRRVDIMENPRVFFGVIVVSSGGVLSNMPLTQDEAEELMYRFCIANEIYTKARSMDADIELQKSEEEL

For `O=C1c2c(O)c(=O)ccn2N([C@@H]2c3ccccc3SCc3c2ccc(F)c3F)[C@@H]2COCCN12` [Baloxavir, baloxavir, reference compound], the EC50 [1] was 5.66 µM, the EC50 [2] was 1.32 µM and the CC50 at 36 h [3] was 55.2 µM. The “inhibition of cleavage of FAM-labeled ssRNA substrate” value [4] was “partially inhibited the cleavage”, the EC50 [5] was 3.74 µM and the EC50 [6] was 2.63 µM. The “SI (CC50/EC50)” value [7] was 10 and the EC50 [8] was 0.00102 µM.

`Cc1cc(O)c2c(c1)C(=O)c1cc(O)cc(O)c1C2=O` [Emodin, emodin] gave an EC50 [1] of 2.75 µM, an EC50 [9] of 1.07 µM and a CC50 at 36 h [3] of 145 µM. The “inhibition of SFTSV in time-of-addition experiment by IFA” value [10] was “significant inhibitory activities under the post-entry and full-time treatment patterns” and the “SI (CC50/EC50)” value [7] was 53.

In the case of `COc1c(CC=C(C)C)c(O)cc2oc(=O)c(-c3ccc(O)cc3O)cc12` [Glycycoumarin, glycycoumarin], the EC50 [1] is reported as 1.86 µM, the EC50 [9] is reported as 3.75 µM and the CC50 at 36 h [3] is reported as 46.3 µM. For the same compound, the “SI (CC50/EC50)” value [7] was 25.

Work on `COc1c(/C=C/C(=O)c2ccc(O)c(CC=C(C)C)c2)ccc(O)c1O` [Licochalcone D, licochalcone D] yielded an EC50 [1] of 4 µM, an EC50 [9] of 4.29 µM and a CC50 at 36 h [3] of 40 µM. The “SI (CC50/EC50)” value [7] was 10.

`CC(C)=CCc1cc2c(=O)cc(-c3ccc(O)cc3)oc2cc1O` [Licoflavone A, licoflavone A] showed an EC50 [1] of 2.8 µM, an EC50 [9] of 2.5 µM and a CC50 at 36 h [3] of 63.8 µM. The “stage of action in time-of-addition experiment” value (shortened to “stage of action”) [10] was “acted at both the entry and post-entry stages” and the “SI (CC50/EC50)” value [7] was 23.

Compound `CC(C)=CCc1c(O)ccc(-c2coc3cc(O)cc(O)c3c2=O)c1O` [Licoisoflavone A, licoisoflavone A] has an EC50 [1] of 3.8 µM, an EC50 [9] of 1.53 µM and a CC50 at 36 h [3] of 167 µM. For the same compound, the “SI (CC50/EC50)” value [7] was 44.

With `NC(=O)c1nc(F)c[nH]c1=O` [T-705, favipiravir, reference compound] the “influence on body weight” value [11] was “negligible influence”, the EC50 [1] was about 47 µM and the “influence on body weight” value [12] was “negligible influence”. For the same compound, the “lung pathology (H&E staining)” value [12] was “significant pathological remission”, the “expression of proinflammatory factors (TNF-α, IL-1β, IL-6, IL-18) in blood and spleen” value [13] was “markedly decreased” and the “toxicity in mice (body weight) within 3 days” value [13] was “neither tanshinone IIA nor T-705 exhibited obvious toxicity”. For the same compound, the “viral copies in blood and spleen” value [13] was “effectively reduced” and the “stage of action” value [10] was “comparable inhibition rate under the post-infection and full-time treatment patterns but had a negligible influence on the virions or at the entry stage”.

For `Cc1coc2c1C(=O)C(=O)c1c-2ccc2c(C)cccc12` [Tanshinone I, tanshinone I], the bioavailability ([14]; i.g. or i.p., SD rats) was “poor”, the AUC(0-t) [14, 20] was 265 ng·h/mL and the Cmax [14, 20] was 12.8 ng/mL. It also gave a Tmax [14, 20] of 2.5 h, a half-life [14, 20] of 35 h and an AUC(0-t) [14, 21] of 412 ng·h/mL. The Cmax [14, 21] was 284 ng/mL, the half-life [14, 21] was 16.1 h and the “influence on body weight” value [11] was “negligible influence”. For the same compound, the “viral copies and proinflammatory factors in the liver” value ([11]; iv) was “reduced”, the EC50 [1] was 2.03 µM and the Kd [15] was 680 µM. For the same compound, the water solubility [16] was “poor water solubility”, the EC50 [9] was 0.44 µM and the EC50 [2] was 0.32 µM. The CC50 at 36 h [3] was 245 µM, the “inhibition of cleavage of FAM-labeled ssRNA substrate” value [4] was “significantly inhibited the cleavage” and the EC50 [5] was 0.45 µM. The “influence on body weight” value [12] was “negligible influence”, the “lung pathology (H&E staining)” value [12] was “significant pathological remission” and the “viral copies in the lung” value [12] was “lowered the viral copies in the lung”. For the same compound, the “proinflammatory factors in the lung” value ([12]; iv) was “downregulated”, the EC50 [6] was 2.92 µM and the body weight change [13] was “less than 10%”. For the same compound, the EC50 [17] was 365 µM, the “inhibition of SFTSV in time-of-addition experiment by IFA” value [10] was “significant inhibitory activities under the post-entry and full-time treatment patterns” and the “stage of action” value [10] was “acted at the post-entry stage”. For the same compound, the “SI (CC50/EC50)” value [7] was 121, the EC50 [18] was 308 µM and the EC50 [8] was 1.04 µM.

With `Cc1coc2c1C(=O)C(=O)c1c-2ccc2c1CCCC2(C)C` [Tanshinone IIA, tanshinone IIA] the EC50 [1] was 2.86 µM, the Kd [15] was 740 µM and the EC50 [2] was 1.64 µM. For the same compound, the CC50 at 36 h [3] was 242 µM, the “inhibition of cleavage of FAM-labeled ssRNA substrate” value [4] was “significantly inhibited the cleavage” and the EC50 [5] was 1.2 µM. For the same compound, the EC50 [6] was 4.64 µM, the “expression of proinflammatory factors (TNF-α, IL-1β, IL-6, IL-18) in blood and spleen” value [13] was “markedly decreased” and the “toxicity in mice (body weight) within 3 days” value [13] was “neither tanshinone IIA nor T-705 exhibited obvious toxicity”. For the same compound, the “viral copies in blood and spleen” value [13] was “effectively reduced”, the EC50 [17] was 597 µM and the “SI (CC50/EC50)” value [7] was 85. The EC50 [18] was 917 µM and the EC50 [8] was 4.02 µM.

For `Cc1c(S(=O)(=O)[O-])oc2c1C(=O)C(=O)c1c-2ccc2c1CCCC2(C)C.[Na+]` [tanshinone IIA sulfonate sodium], the water solubility [19] is listed as “significantly improved water solubility” and the “antiviral activity against SFTSV relative to tanshinone I or IIA” value [7] is listed as “poorer antiviral activity”.
